Measurements taken from paper PMC8955307, “Nucleobase-Derived Nitrones: Synthesis and Antioxidant and Neuroprotective Activities in an In Vitro Model of Ischemia–Reperfusion” (International Journal of Molecular Sciences, 2022).

Legend:
[1] = test system: human neuroblastoma SH-SY5Y cells; test: Superoxide radical production (DHE fluorescence) after OGD and 3 h OGR (IR); type: cell-based; details: Homo sapiens, OGD + 3 h OGR (IR); for EC50: compounds 0.1 to 1000 μM, read-out: Antioxidant Activity EC50 ± SEM (superoxide production); for Emax: read-out: Maximal Activity mean±SEM (antioxidant)
Protocol: A density of 2–2.5 × 10^5 SHSY5Y cells/well was used to seed in 48-well plates to quantify superioxide anion formation. Firstly, cultured cells were exposed to OGD treatment for 3–4 h or maintained in normoxic conditions (controls). Thereafter, medium was replaced with oxygenated Dulbecco’s: Ham’s F12 medium with glucose, 1% Antibiotic-Antimycotic, 1% Gentamicin and 10% FCS. Cells were incubated in the absence (controls) or presence of indicated concentrations of the compounds of study, at 37 °C for 3 h. […] For every condition, the linear regression of fluorescence data (expressed in arbitrary fluorescence units, AFU) was calculated, and the slopes (a) of the best fitting lines (y = ax) were considered as an index of superoxide production, as described previously.

[2] = test system: SH-SY5Y human neuroblastoma cells; test: Neuroprotection: cell viability (XTT metabolic activity) after OGD (4 h) followed by OGR (24 h) (IR); type: cell-based; details: Homo sapiens, OGD 4 h + OGR 24 h (IR); for Emax: 24 h, read-out: Maximal Activity mean±SEM (neuroprotection); for EC50: compounds 0.01 μM to 1 mM, read-out: Neuroprotection EC50 ± SEM
Protocol: Cultures of human neuroblastoma cells from line SH-SY5Y were performed in flasks containing Dulbecco’s: Ham’s F12, 1:1 [v/v] composed of 0.5 mM sodium pyruvate, 2.5 mM GlutaMAX™; GIBCO, Life Technologies, Madrid (Spain), 3.15 mg/mL glucose, 1% Antibiotic-Antimycotic (100 ui/mL penicillin, […] streptomycin, and 0.25 mg amphotericin B), 1% Gentamicin 15 mg/mL (Sigma-Aldrich, Madrid, Spain) and 10% Fetal Calf Serum (FCS) (Gibco; Life Technologies, Madrid, Spain) as as described. For each experiment, neuroblastoma cells were digested partially with 0.25% trypsin-EDTA and seeded in plates of 96 or 48 wells with a density of 0.5–1 or 2–2.5 × 10^5 cells/well, respectively, depending on the assay. At 80% confluence of the seeded cells, medium was renewed adding 0.1–1000 µM of the compounds tested.
(§1) To induce experimental ischemia, and the sub-consequent cellular damage, the neuroblastoma cultures underwent OGD for 3–4 h, maintained in a glucose-free Dulbecco’s medium inside an anaerobic chamber in the presence of a gas mixture of 95% N2/5% CO2 and humidified at 37 °C at a constant pressure of 0.15 bar. After the OGD period (4 h), medium was substituted by oxygenated 10% FCS-containing medium, and cells were incubated in conditions of normoxia for 24 h to recovery (R24h). The compounds used in the neuroprotection studies: nitrones 9a–i, α-phenyl-N-tert-butyl nitrone (PBN) and N-acetyl-L-cysteine (NAC) (0.01 μM−1000 µM), were added at the beginning of R24h as described. Concurrently, controls in the absence of the OGD procedure were performed by maintaining these cells with Dulbecco’s medium including glucose for 3–4 h in an incubator in conditions of normoxia during the OGD period; thereafter, the medium was changed, and the cells (in the presence or absence of the different study compounds) were returned to the incubator for 24 h of recovery, as described. In addition, experiments including the same amounts of vehicle (final concentration < 1% dimethyl sulfoxide) were performed, serving as controls. The effects of nitrones 9a–g were analyzed three-five times independently using different culture batches, and each experiment was carried out in triplicate.
(§2) Cell viability measurements were carried out in human neuroblastoma cells SHSY5Y using 96-well culture plates, containing about 0.5–1 × 10^5 cells/well, after the OGD-R24h or control treatment including 0.01–1000 µM of the different testing compounds (nitrones 9a–g, PBN, and NAC), utilizing the Cell Proliferation Kit II (XTT), Sigma Aldrich, Madrid, Spain, which determines the culture’s metabolic capacity, as described in [21, 22]. XTT solution (0.3 mg/mL final concentration) was added to the seeded cells, incubated for 2 h at 37 °C with 5% CO2 and 95% air (v/v), and a spectrophotometer reader (Biotek Power-Wave XS microplate-reader (BioTek Instruments, Madrid, Spain) was used to register the absorbance at 450 nm (reference 650 nm) of the soluble formazan product generated. 100% viability was set by control normoxic cells treated with medium only, and control cells were added 0.001–1% DMSO in every assay.

[3] = test system: human neuroblastoma SH-SY5Y cells; test: Basal neurotoxicity: cell viability under basal conditions; type: cell-based
Protocol: as §2

[4] = test system: SH-SY5Y human neuroblastoma cells; test: Anti-necrotic effect: LDH release after OGD (4 h) and 24 h OGR (IR); type: cell-based; details: Homo sapiens, OGD 4 h + 24 h OGR (IR); for IC50: compounds 0.1 μM to 1 mM, read-out: LDH Release Inhibition IC50 ±SEM; for Emax: read-out: Maximal Inhibition Mean±SEM (LDH release)
Protocol: as §1
Anti-necrotic cell activity was evaluated by culturing SHSY5Y cells in 48-well dishes, in a density of 2 × 10^5 cells/well and treating them as controls or under the OGD-R24h procedure, adding the testing compounds at 0.01–1000 µM (see point 4.2.2.). Media of every well were collected in Eppendorf tubes properly labelled and stored at −20 °C until measurement (samples would be needed to measure extracellular NADH). Afterwards, each well was recharged with a 0.1 M Phosphate Buffer with 0.5% Triton X-100, pH 7.5, in order to scratch the cells from the bottom of the well. After a 13.000 rpm centrifugation, the soluble fractions are collected and labelled (samples would be essential to measure intracellular NADH). Finally, LDH activity was quantified as the degree of absorbance declined at 340, indicating the oxidation of NADH to NAD+ as described. Results are expressed as the LDH activity of the extracellular medium referred to the total LDH activity after cell lysis.

[5] = Reducing ability: interaction with DPPH; details: tested at 100 µM
[6] = Inhibition of lipid peroxidation (ILPO), AAPH protocol with sodium linoleate; details: tested at 100 µM
Protocol: The reactants consisting of 10 µL (16 mM) sodium linoleate, 10 µL of the tested nitrones in DMSO (final concentration 100 µM), 50 µL of AAPH ([…]) as a free radical initiator, 930 µL phosphate buffer pH 7.4 (0.05 M) at 37 °C under air, were mixed and the reaction’s result (as absorbance value) was recorded at 234 nm in comparison to PBN as a reference.

[7] = Hydroxyl radical scavenging (competition with DMSO); details: tested at 100 µM
Protocol: The competition of the tested nitrones (100 µM) with DMSO (33 mM) in the phosphate buffer (50 mM), pH 7.4, was used. The hydroxyl radicals were generated by the Fe^3+/ascorbic acid system (EDTA 0.1 mM, Fe^3+ 167 µM, ascorbic acid 10 mM), and the samples were incubated at 37 °C/30 min. A 17% w/v solution of CCl3CO2H was used to stop the radical propagation. The percentage scavenging activity was compared to Trolox used as a reference.

[8] = ABTS radical cation decolorization assay; details: tested at 100 µM
Protocol: Approximately 10 µL of the tested compounds in DMSO (100 µM final concentration) were mixed with 200 µL of ABTS∙^+ (100 mM) and 790 µL absolute ethanol. The absorbance value was recorded 1 min after mixing at 734 nm and compared to Trolox.

[9] = molecular target: T1, Soybean Lipoxygenase (SLOX) (Glycine max, UniProt P08170); test: In vitro inhibition of soybean lipoxygenase (UV absorbance-based enzyme assay); type: biochemical; details: soybean LOX, sodium linoleate substrate, pH 9
T1 sequence (P08170 1-839): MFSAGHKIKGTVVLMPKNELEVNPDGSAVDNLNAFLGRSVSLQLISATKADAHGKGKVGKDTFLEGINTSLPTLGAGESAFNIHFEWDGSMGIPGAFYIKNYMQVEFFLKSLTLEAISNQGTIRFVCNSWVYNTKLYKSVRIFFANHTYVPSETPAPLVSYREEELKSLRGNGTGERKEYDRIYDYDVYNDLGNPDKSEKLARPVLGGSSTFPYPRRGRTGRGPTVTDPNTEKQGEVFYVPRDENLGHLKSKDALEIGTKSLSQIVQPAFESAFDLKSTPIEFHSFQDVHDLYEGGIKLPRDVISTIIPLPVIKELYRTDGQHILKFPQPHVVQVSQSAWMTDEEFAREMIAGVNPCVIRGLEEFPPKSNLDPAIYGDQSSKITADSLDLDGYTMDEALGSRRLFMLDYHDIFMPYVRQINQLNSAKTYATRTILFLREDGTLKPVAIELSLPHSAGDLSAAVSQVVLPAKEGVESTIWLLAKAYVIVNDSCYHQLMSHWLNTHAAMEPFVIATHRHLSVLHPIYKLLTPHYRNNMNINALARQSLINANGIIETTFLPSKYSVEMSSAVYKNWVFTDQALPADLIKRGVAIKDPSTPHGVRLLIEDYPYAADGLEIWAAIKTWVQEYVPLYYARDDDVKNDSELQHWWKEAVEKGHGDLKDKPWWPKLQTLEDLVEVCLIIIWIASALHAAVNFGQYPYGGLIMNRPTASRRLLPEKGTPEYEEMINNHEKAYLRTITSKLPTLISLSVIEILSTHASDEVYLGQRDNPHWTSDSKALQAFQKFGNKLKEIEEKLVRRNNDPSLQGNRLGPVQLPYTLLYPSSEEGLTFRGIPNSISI
Protocol: The experimental conditions followed our previously reported protocol. Sodium linoleate was used as a substrate (0.1 mM) with 0.2 mL of the saline solution of SLOX (1/9 × 10^−4 w/v) in the Tris buffer pH 9.

| Compound | EC50 [1] | Emax [1] | Emax [2] | EC50 [2] | Neurotoxic effects at basal level (cell viability) [3] | IC50 [4] | Emax [4] | DPPH (%) [5] | ILPO (%) [6] | OH (%) scavenging [7] | ABTS+ (%) [8] | IC50 [9] | melting point |
| --- | --- | --- | --- | --- | --- | --- | --- | --- | --- | --- | --- | --- | --- |
| CC(=O)N[C@@H](CS)C(=O)O [NAC, N-acetyl-L-cysteine, reference compound] | 0.97 ± 0.16 µM | 126 ± 5.19% | 131 ± 4.85% | 4.18 ± 0.52 µM | did not show any neurotoxic effects | 4.64 ± 1.05 µM | 99.1 ± 6.59% | – | – | – | – | – | – |
| CC(Cc1ccc(O)c(O)c1)C(C)Cc1ccc(O)c(O)c1 (stereo not shown) [NDGA, Nordihydroguaiaretic acid, reference compound] | – | – | – | – | – | – | – | 93% | – | – | – | – | – |
| C/[N+]([O-])=C/Cn1ccc(=O)[nH]c1=O [9a] | 0.37 ± 0.04 µM | 111 ± 1.46% | – | – | – | 2.57 ± 0.53 µM | 100 ± 4.75% | 20% | 62% | no activity and No | 19% | 62.5 µM | – |
| Cc1c(C)c2c(c(C)c1O)CCC(C)(C(=O)O)O2 (stereo not shown) [Trolox, reference compound] | – | – | – | – | – | – | – | – | 93% | 73% | 91% | – | – |
| Cn1c(=O)c2ncn(C/C=[N+](/C)[O-])c2n(C)c1=O [9g] | 0.28 ± 0.03 µM | 83 ± 1.37% | 105 ± 3.19% | – | – | 2.66 ± 1.11 µM | – | 15% | – | 49% | 8% | 33 µM | 192 °C (dec.) |
| C/[N+]([O-])=C/Cn1ccc(=O)n(C/C=[N+](/C)[O-])c1=O [9h] | 0.32 ± 0.06 µM | 127 ± 3.12% | 115 ± 6.92% | 6.15 ± 0.33 µM | – | 17.6 ± 3.33 µM | 126 ± 4.27% | 82% | inactive and No | 25% | 50% | – | – |
| C/[N+]([O-])=C/Cn1cc(F)c(=O)[nH]c1=O [9c] | 3.69 ± 0.7 µM | 96.1 ± 3.03% | – | – | – | ~1 µM | 148 ± 8.8% | 18% | 59% | 99% | 5% | 28 µM | 195 °C (dec.) |
